According to patent US4346094A, “3-Aryl-5-isothiazolecarboxylic acids and related compounds used to lower uric acid levels” (Eli Lilly and Company, priority 1980, dated 1982):
pIC50: −log10 of the molar value.

Target: T1, xanthine oxidase (Bos taurus, UniProt P80457)
T1 construct: purchased Sigma Chemical Company, St. Louis, Mo; host or cells: milk (grade III, chromatographically purified)
Experiment: in vitro xanthine oxidase assay (rate of uric acid formation from xanthine)
Assay type: biochemical
Details: not given
Protocol: Since uric acid is produced by the oxidation of, first, hypoxanthine to xanthine and, second, of xanthine to uric acid via the enzyme, xanthine oxidase, an inhibitor of xanthine oxidase in vivo would obviously decrease the uric acid concentrations in the blood.
Xanthine oxidase activity was measured at room temperature by the rate of uric acid formation from xanthine substrate. In a total volume of 1 ml., the incubation mixture contained 50 micromoles of potassium phosphate buffer at pH 7.4, 0.05 micromoles of xanthine and 0.01 units of enzyme preparation (chromatographically purified milk xanthine oxidase, grade III, obtained from Sigma Chemical Company, St. Louis, Mo.). The absorbence change at 292 nm was recorded by a Gilford recording spectrophotometer and the uric acid formed was calculated using an extinction coefficient of 12 mM^-1 Cm^-1 at 292 nm.

T1 sequence (P80457 whole entry): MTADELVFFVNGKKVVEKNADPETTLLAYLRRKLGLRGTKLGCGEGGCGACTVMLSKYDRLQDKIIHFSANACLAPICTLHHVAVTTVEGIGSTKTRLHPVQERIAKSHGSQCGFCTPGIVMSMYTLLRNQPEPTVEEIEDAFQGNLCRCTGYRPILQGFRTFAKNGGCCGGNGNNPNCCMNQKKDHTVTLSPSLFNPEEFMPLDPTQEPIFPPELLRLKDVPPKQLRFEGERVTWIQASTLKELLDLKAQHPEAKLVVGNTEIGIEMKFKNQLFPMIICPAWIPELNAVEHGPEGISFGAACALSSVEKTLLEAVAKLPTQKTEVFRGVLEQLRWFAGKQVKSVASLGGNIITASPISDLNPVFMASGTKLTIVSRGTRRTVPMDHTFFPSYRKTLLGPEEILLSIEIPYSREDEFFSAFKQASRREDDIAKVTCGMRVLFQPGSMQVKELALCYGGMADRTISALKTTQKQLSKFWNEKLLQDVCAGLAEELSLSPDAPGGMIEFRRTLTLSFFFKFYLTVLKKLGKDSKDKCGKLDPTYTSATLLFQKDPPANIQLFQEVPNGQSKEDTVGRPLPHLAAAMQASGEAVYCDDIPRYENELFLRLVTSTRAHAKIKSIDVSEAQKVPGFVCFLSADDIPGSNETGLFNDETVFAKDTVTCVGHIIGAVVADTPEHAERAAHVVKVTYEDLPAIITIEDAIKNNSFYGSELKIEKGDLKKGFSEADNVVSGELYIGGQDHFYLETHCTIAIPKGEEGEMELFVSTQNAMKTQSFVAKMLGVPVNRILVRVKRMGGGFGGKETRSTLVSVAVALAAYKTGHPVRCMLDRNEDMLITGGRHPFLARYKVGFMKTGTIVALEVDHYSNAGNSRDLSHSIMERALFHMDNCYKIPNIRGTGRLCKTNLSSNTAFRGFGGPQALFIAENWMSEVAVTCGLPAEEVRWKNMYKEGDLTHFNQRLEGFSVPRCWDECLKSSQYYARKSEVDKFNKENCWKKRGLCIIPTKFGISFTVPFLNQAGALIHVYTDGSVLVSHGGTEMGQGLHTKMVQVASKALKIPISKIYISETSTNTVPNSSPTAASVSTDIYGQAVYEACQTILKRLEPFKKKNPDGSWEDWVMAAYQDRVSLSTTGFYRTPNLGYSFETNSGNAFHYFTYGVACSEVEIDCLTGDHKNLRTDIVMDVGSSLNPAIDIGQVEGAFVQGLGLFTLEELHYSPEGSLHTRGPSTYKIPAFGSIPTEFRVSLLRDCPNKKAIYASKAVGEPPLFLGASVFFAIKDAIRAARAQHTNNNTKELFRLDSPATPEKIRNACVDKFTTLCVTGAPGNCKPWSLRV

Structure (SMILES) | pIC50
O=C(O)c1snc(-c2cccc(C(F)(F)F)c2)c1I [R=3-CF3, X=I, 3-(3-trifluoromethylphenyl)-4-iodo-5-isothiazolecarboxylic acid] | 6.62
O=C(O)c1snc(-c2cccc(Cl)c2)c1Cl [R=3-Cl, X=Cl, 3-(3-chlorophenyl)-4-chloro-5-isothiazolecarboxylic acid] | 7.16
O=C(O)c1snc(-c2ccc(Cl)cc2)c1Br [R=4-Cl, X=Br, 3-(4-chlorophenyl)-4-bromo-5-isothiazolecarboxylic acid] | 6.50

Same assay, conditions: milk xanthine oxidase 0.01 units, 0.05 micromoles xanthine in 1 ml, pH 7.4, room temperature, 292 nm; read-out: I50 (concentration of drug which inhibits 50% of the oxidation of xanthine to uric acid by the xanthine oxidase preparation) (converted)

Structure (SMILES) | IC50
Nc1c(-c2ccc3c(c2)OCO3)nsc1C(=O)O [3,4-methylenedioxy, 3-(1,3-benzodioxyl-5-yl)-4-amino-5-isothiazolecarboxylic acid] | 492 nM
Nc1c(-c2cccs2)nsc1C(=O)O [Ar=2-thienyl, 3-(2-thienyl)-4-amino-5-isothiazolecarboxylic acid] | 3310 nM
Nc1c(-c2cccnc2)nsc1C(=O)O [Ar=3-pyridinyl, 3-(3-pyridyl)-4-amino-5-isothiazolecarboxylic acid] | 1490 nM
O=C(O)c1snc(-c2cccc(C(F)(F)F)c2)c1F [R=3-CF3, X=F, 3-(3-trifluoromethylphenyl)-4-fluoro-5-isothiazolecarboxylic acid] | 68.7 nM
CNc1c(-c2cccc(C(F)(F)F)c2)nsc1C(=O)O [R=3-CF3, X=NHCH3, 3-(3-trifluoromethylphenyl)-4-methylamino-5-isothiazolecarboxylic acid] | 562 nM
COc1ccc(-c2nsc(C(=O)O)c2N)cc1C [R=3-CH3, R^1=4-OCH3, 3-(4-methoxy-3-methylphenyl)-4-amino-5-isothiazolecarboxylic acid] | 151 nM
Cc1cccc(-c2nsc(C(=O)O)c2N)c1 [R=3-CH3, R^1=H, 3-(3-tolyl)-4-amino-5-isothiazolecarboxylic acid] | 640 nM
Cc1cccc(-c2nsc(C(=O)O)c2Cl)c1 [R=3-CH3, X=Cl, 3-(3-tolyl)-4-chloro-5-isothiazolecarboxylic acid] | 134 nM
Nc1c(-c2ccc(Cl)c(Cl)c2)nsc1C(=O)O [R=3-Cl, R^1=4-Cl, 3-(3,4-dichlorophenyl)-4-amino-5-isothiazolecarboxylic acid] | 214 nM
Nc1c(-c2cccc(Cl)c2)nsc1C(=O)O [R=3-Cl, R^1=H, 3-(3-chlorophenyl)-4-amino-5-isothiazolecarboxylic acid] | 267 nM
O=C(O)c1snc(-c2cccc(Cl)c2)c1Br [R=3-Cl, X=Br, 3-(3-chlorophenyl)-4-bromo-5-isothiazolecarboxylic acid] | 81.6 nM
O=C(O)c1cc(-c2cccc(Cl)c2)ns1 [R=3-Cl, X=H, 3-(3-chlorophenyl)-5-isothiazolecarboxylic acid] | 334 nM
O=C(O)c1snc(-c2cccc(Cl)c2)c1I [R=3-Cl, X=I, 3-(3-chlorophenyl)-4-iodo-5-isothiazolecarboxylic acid] | 903 nM
COc1ccc(-c2nsc(C(=O)O)c2N)cc1F [R=3-F, R^1=4-OCH3, 3-(3-fluoro-4-methoxyphenyl)-4-amino-5-isothiazolecarboxylic acid] | 67.1 nM

Further lines, results first:

IC50 | Structure (SMILES)
1260 nM | Nc1c(-c2cccc(F)c2)nsc1C(=O)O [R=3-F, R^1=H, 3-(3-fluorophenyl)-4-amino-5-isothiazolecarboxylic acid]
116 nM | O=C(O)c1snc(-c2cccc(F)c2)c1Cl [R=3-F, X=Cl, 3-(3-fluorophenyl)-4-chloro-5-isothiazolecarboxylic acid]
410 nM | COc1ccc(-c2nsc(C(=O)O)c2N)cc1OC [R=3-OCH3, R^1=4-OCH3, 3-(3,4-dimethoxyphenyl)-4-amino-5-isothiazolecarboxylic acid]
89.2 nM | COc1cc(OC)cc(-c2nsc(C(=O)O)c2N)c1 [R=3-OCH3, R^1=5-OCH3, 3-(3,5-dimethoxyphenyl)-4-amino-5-isothiazolecarboxylic acid]
1160 nM | COc1cccc(-c2nsc(C(=O)O)c2N)c1 [R=3-OCH3, R^1=H, 3-(3-methoxyphenyl)-4-amino-5-isothiazolecarboxylic acid]
108 nM | COc1cccc(-c2nsc(C(=O)O)c2Cl)c1 [R=3-OCH3, X=Cl, 3-(3-anisyl)-4-chloro-5-isothiazolecarboxylic acid]
3740 nM | COc1cccc(-c2cc(C(=O)O)sn2)c1 [R=3-OCH3, X=H, 3-(3-anisyl)-5-isothiazolecarboxylic acid]
1720 nM | COc1cccc(-c2nsc(C(=O)O)c2I)c1 [R=3-OCH3, X=I, 3-(3-anisyl)-4-iodo-5-isothiazolecarboxylic acid]
2760 nM | Nc1c(-c2ccc(Br)cc2)nsc1C(=O)O [R=4-Br, R^1=H, 3-(4-bromophenyl)-4-amino-5-isothiazolecarboxylic acid]
624 nM | Nc1c(-c2ccc(C(F)(F)F)cc2)nsc1C(=O)O [R=4-CF3, R^1=H, 3-(4-trifluoromethylphenyl)-4-amino-5-isothiazolecarboxylic acid]
1200 nM | Cc1ccc(-c2nsc(C(=O)O)c2N)cc1 [R=4-CH3, R^1=H, 3-(p-tolyl)-4-amino-5-isothiazolecarboxylic acid]
315 nM | Cc1ccc(-c2nsc(C(=O)O)c2Cl)cc1 [R=4-CH3, X=Cl, 3-(4-tolyl)-4-chloro-5-isothiazolecarboxylic acid]
2750 nM | Nc1c(-c2ccc(Cl)cc2)nsc1C(=O)O [R=4-Cl, R^1=H, 3-(4-chlorophenyl)-4-amino-5-isothiazolecarboxylic acid]
365 nM | O=C(O)c1snc(-c2ccc(Cl)cc2)c1Cl [R=4-Cl, X=Cl, 3-(4-chlorophenyl)-4-chloro-5-isothiazolecarboxylic acid]
1960 nM | O=C(O)c1cc(-c2ccc(Cl)cc2)ns1 [R=4-Cl, X=H, 3-(4-chlorophenyl)-5-isothiazolecarboxylic acid]
2740 nM | O=C(O)c1snc(-c2ccc(Cl)cc2)c1I [R=4-Cl, X=I, 3-(4-chlorophenyl)-4-iodo-5-isothiazolecarboxylic acid]
1600 nM | Nc1c(-c2ccc(F)cc2)nsc1C(=O)O [R=4-F, R^1=H, 3-(4-fluorophenyl)-4-amino-5-isothiazolecarboxylic acid]
202 nM | O=C(O)c1snc(-c2ccc(F)cc2)c1Cl [R=4-F, X=Cl, 3-(4-fluorophenyl)-4-chloro-5-isothiazolecarboxylic acid]
106 nM | CCOc1ccc(-c2nsc(C(=O)O)c2N)cc1 [R=4-OC2 H5, R^1=H, 3-(4-ethoxyphenyl)-4-amino-5-isothiazolecarboxylic acid]
86.2 nM | CCCOc1ccc(-c2nsc(C(=O)O)c2N)cc1 [R=4-OC3 H7, R^1=H, 3-(4-propoxyphenyl)-4-amino-5-isothiazolecarboxylic acid]
559 nM | COc1ccc(-c2nsc(C(=O)O)c2N)cc1 [R=4-OCH3, R^1=H, 4-amino-3-(4-methoxyphenyl)-5-isothiazolecarboxylic acid]
51.9 nM | COc1ccc(-c2nsc(C(=O)O)c2Cl)cc1 [R=4-OCH3, X=Cl, 3-(4-anisyl)-4-chloro-5-isothiazolecarboxylic acid]
276 nM | COc1ccc(-c2cc(C(=O)O)sn2)cc1 [R=4-OCH3, X=H, 3-(4-anisyl)-5-isothiazolecarboxylic acid]
68.3 nM | CC(C)Oc1ccc(-c2nsc(C(=O)O)c2N)cc1 [R=4-OCH(CH3)2, R^1=H, 3-(4-isopropoxyphenyl)-4-amino-5-isothiazolecarboxylic acid]
